What all share (format): physicochemical
Data set [1] can be described thus: Maximum absorption wavelength (λmax) after color development, spectrophotometer MCPD3000. The settings on record: for Maximum absorption wavelength: after color development. An outline of the steps: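 Read-out: absorbance at λmax, multichannel photodetector spectrophotometer. Colour density = ε(240) − ε(0), 240 s light, 23°C. τ1/2 = time for ε(240) − ε(0) to halve after light off. Residual rate compares density before and after 90 h xenon weathering.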

Data set [2] can be described thus: 23°C color optical density (A23): absorbancy difference ε(240)-ε(0) after 240 s light irradiation at 23°C. The settings on record: 240 s irradiation; for 23°C color optical density (-): comparative compounds. In short, it runs like this:
(§1)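 Absorbance differences between the dark and 240 s-irradiated states, measured at 23°C, served as the density metric. The same signal was followed after irradiation to obtain the half-decay time. Lenses then underwent 90 h of accelerated xenon deterioration.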

A short description of data set [3]: 35°C color optical density (A35): absorbancy difference ε(240)-ε(0) after 240 s light irradiation at 35°C. The following applies: 240 s irradiation; for 35°C color optical density (-): comparative compounds. An outline of the steps: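 Color optical density at 35°C (A35) came from light exposure of the sample at 35°C lasting 240 seconds. At the first and second absorption wavelengths, the absorbancy before irradiation, ε(0), was subtracted from the absorbancy measured after irradiation, ε(240). This difference was taken as the measure of color optical density.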

A short description of data set [4]: Residual rate (A90/A0×100) after 90 h accelerated deterioration in xenon weather meter X25, color developing durability. The following applies: for Residual rate: after 90 h accelerated deterioration; for Residual rate (%): xenon weather meter 90 hours. An outline of the steps:
as §1

The nature of data set [5]: High-temperature color development rate (A35/A23×100), temperature dependency. An outline of the steps:
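The sample was irradiated with light for 240 seconds at 23°C and separately at 35°C. The gain in absorbance over the unirradiated state, ε(240)−ε(0), gave the color optical densities A23 and A35. A35 divided by A23, multiplied by 100, expressed how well color development holds up at the higher temperature.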

The mark [6] stands for this setting: binder sheet (binder method), absorption peak at 474 nm.
[7] abbreviates: binder sheet (binder method), absorption peak at 566 nm.
Where [8] appears, read: photochromic cured product, thickness 1 mm (kneading method), absorption band at 476 nm.
[9] abbreviates: photochromic cured product, thickness 1 mm (kneading method), absorption band at 573 nm.
Where [10] appears, read: photochromic laminate prepared by coating method, absorption band at 474 nm.
[11] abbreviates: photochromic laminate prepared by coating method, absorption band at 567 nm.
The mark [12] stands for this setting: binder sheet (binder method), at 474 nm absorption maximum.
The mark [13] stands for this setting: binder sheet (binder method), at 566 nm absorption maximum.
Where [14] appears, read: photochromic laminate by coating method, absorption band at 474 nm.
Setting [15] is: photochromic laminate by coating method, absorption band at 567 nm.
The mark [16] stands for this setting: cured product by kneading method, 1 mm.
The mark [17] stands for this setting: photochromic cured product by kneading method, 1 mm thick thiourethane, 0.106 mmol per 100 g monomers.
[18] abbreviates: photochromic laminate by coating method, 40 µm photochromic layer on thiourethane lens, 0.25 mmol compound per 100 g monomers.
Setting [19] is: photochromic laminate by coating method, at the maximum absorption wavelength.
Setting [20] is: photochromic laminate by coating method.
[21] abbreviates: binder sheet (binder method), urethaneurea resin photochromic layer between polycarbonate sheets, 0.25 mmol per 100 parts by mass resin.

Each structure is given as a SMILES string.

`COc1ccc(C2(c3ccc(OC)cc3)C=Cc3c4c(c5cc(N6CCOCC6)c(OC)cc5c3O2)-c2ccccc2C4(C)C)cc1` [Formula (A), reference compound]: the “Maximum absorption wavelength (nm)” value in data set [1] (binder sheet (binder method), urethaneurea resin photochromic layer between polycarbonate sheets, 0.25 mmol per 100 parts by mass resin, at 474 nm absorption maximum) is on record as 474 nm; in data set [1] (binder sheet (binder method), urethaneurea resin photochromic layer between polycarbonate sheets, 0.25 mmol per 100 parts by mass resin, at 566 nm absorption maximum) it was 566 nm; in data set [1] (photochromic cured product by kneading method, 1 mm thick thiourethane, 0.106 mmol per 100 g monomers, absorption peak at 476 nm) it was 476 nm; in data set [1] (photochromic cured product by kneading method, 1 mm thick thiourethane, 0.106 mmol per 100 g monomers, absorption peak at 573 nm) it was 573 nm; in data set [1] (photochromic laminate by coating method, 40 µm photochromic layer on thiourethane lens, 0.25 mmol compound per 100 g monomers, absorption band at 474 nm), 474 nm; in data set [1] (photochromic laminate by coating method, 40 µm photochromic layer on thiourethane lens, 0.25 mmol compound per 100 g monomers, absorption band at 567 nm) it was 567 nm. In addition, the Maximum absorption wavelength in data set [1] (setting [6]) was found to be 474 nm; in data set [1] (setting [7]) it was 566 nm; in data set [1] (setting [8]), 476 nm; in data set [1] (setting [9]) it was 573 nm; in data set [1] (setting [10]) it was 474 nm; in data set [1] (setting [11]), 567 nm. Moreover, the “A23 (-)” value in data set [2] (setting [12]) is reported as 1.69 -; in data set [2] (setting [13]), 0.85 -. In addition, the “23°C color optical density (-)” value in data set [2] (setting [14]) was 1.65 -; in data set [2] (setting [15]) it was 0.83 -. For the same compound, the “35°C color optical density (-)” value in data set [3] (setting [14]) was 1.14 -; in data set [3] (setting [15]), 0.57 -. Besides, the Residual rate worked out at 70% in data set [4] (setting [6]); 76% in data set [4] (setting [7]); 60% in data set [4] (setting [8]); 65% in data set [4] (setting [9]); 53% in data set [4] (setting [10]); 57% in data set [4] (setting [11]). The “Residual rate (%)” value turned out to be 70% in data set [4] (setting [12]); 76% in data set [4] (setting [13]); 60% in data set [4] (cured product by kneading method, 1 mm, absorption peak at 476 nm); 65% in data set [4] (cured product by kneading method, 1 mm, absorption peak at 573 nm); 53% in data set [4] (setting [14]); 57% in data set [4] (setting [15]). In addition, the “A35/A23 *100” value in data set [5] (setting [6]) is listed as 69%; in data set [5] (setting [7]), 68%; in data set [5] (photochromic cured product, thickness 1 mm (kneading method)), 70%; in data set [5] (photochromic laminate prepared by coating method), 69%. Moreover, the “A35/A23 *100 (%)” value in data set [5] (setting [12]) is reported as 69%; in data set [5] (setting [13]), 68%; in data set [5] (setting [16]) it was 70%. In addition, in data set [5] (photochromic laminate by coating method, comparative compounds, corresponds to A35/A23×100), the “Temperature change rate (%)” value stood at 69%.
In the case of `CCCCCCOc1ccc(C2(c3ccc(OC)cc3)C=Cc3c4c(c5cc(N(c6ccc(C)cc6)c6ccc(OC)cc6)c(OC)cc5c3O2)-c2ccccc2C42CC(C)(C)CC(C)(C)C2)cc1` (stereo not drawn) [Example 15 Formula (75)], the “Maximum absorption wavelength (nm)” value was determined as 527 nm in data set [1] (setting [17]) and 523 nm in data set [1] (setting [18]). The “A23 (-)” value is recorded as 1.22 - in data set [2] (setting [16]) and 1.20 - in data set [2] (setting [19]). For the same compound, the results for the “A35 (-)” value in data set [3] (setting [16]) and in data set [3] (setting [20]) were 0.76 - and 0.74 -, respectively. For the same compound, the results for the “Residual rate (%)” value in data set [4] (setting [16]) and in data set [4] (setting [20]) were 81% and 75%, respectively. Also, the figures for the “A35/A23 *100 (%)” value in data set [5] (setting [16]) and in data set [5] (setting [20]) were 63% and 62%, respectively.
Consider `CCCOc1ccc(C2(c3ccc(OCCC)cc3)C=Cc3c4c(c5cc(N(CCOC)c6ccccc6)c(OC)cc5c3O2)-c2ccccc2C42CCCCCCC2)cc1` [Example 6 Formula (47)], for which the “Maximum absorption wavelength (nm)” value in data set [1] (setting [21]) and in data set [1] (setting [18]) was 499 nm in each case. Moreover, the “A23 (-)” value in data set [2] (binder sheet (binder method)) is reported as 1.37 -; in data set [2] (setting [19]) it was 1.34 -. In addition, the “A35 (-)” value in data set [3] (binder sheet (binder method)) is listed as 0.97 -; in data set [3] (setting [20]), 0.95 -. The “Residual rate (%)” value in data set [4] (binder sheet (binder method)) amounted to 94%; in data set [4] (setting [20]), 80%. The “A35/A23 *100 (%)” value in data set [5] (binder sheet (binder method)) and in data set [5] (setting [20]) was 71% each time.
Regarding `CCCOc1ccc(C2(c3ccc(OCCC)cc3)C=Cc3c4c(c5cc(N(C)c6ccc(C)cc6)c(OC)cc5c3O2)-c2ccccc2C4(CCCCOC)CCCCOC)cc1` [Example 20 Formula (85)], the “Maximum absorption wavelength (nm)” value in data set [1] (setting [21]) is recorded as 503 nm; in data set [1] (setting [17]), 507 nm; in data set [1] (setting [18]) it was 503 nm. The results for the “A23 (-)” value in data set [2] (binder sheet (binder method)), in data set [2] (setting [16]) and in data set [2] (setting [19]) were 1.23 -, 1.24 - and 1.22 -, respectively. Besides, the “A35 (-)” value in data set [3] (binder sheet (binder method)) was 0.86 -; in data set [3] (setting [16]), 0.87 -; in data set [3] (setting [20]), 0.85 -. Moreover, the figures for the “Residual rate (%)” value in data set [4] (binder sheet (binder method)), in data set [4] (setting [16]) and in data set [4] (setting [20]) were 93%, 85% and 81%, respectively. Also, the “A35/A23 *100 (%)” value in data set [5] (binder sheet (binder method)), in data set [5] (setting [16]) and in data set [5] (setting [20]) was 70% each time.
Regarding `CCCCC1(CCCC)c2cc([Si](C)(C)C(C)(C)C)ccc2-c2c1c1c(c3cc(OC)c(N(CC)c4ccccc4)cc23)OC(c2ccc(OC)cc2)(c2ccc(OCCC)cc2)C=C1` (stereo not drawn) [Example 46 Formula (99)], the “Maximum absorption wavelength (nm)” value in data set [1] (setting [18]) amounted to 504 nm. Also, the “A23 (-)” value in data set [2] (setting [19]) was 1.29 -. Also, the “A35 (-)” value in data set [3] (setting [20]) is 0.90 -. For the same compound, the “Residual rate (%)” value in data set [4] (setting [20]) is 78%. The “A35/A23 *100 (%)” value in data set [5] (setting [20]) came out at 70%.
Turning to `CCCC1(CCC)c2ccccc2-c2c1c1c(c3cc(OC)c(N4CCOc5ccccc54)cc23)OC(c2ccc(OC)cc2)(c2ccc(OC)cc2)C=C1` [Example 10 Formula (59)], the entries for the “Maximum absorption wavelength (nm)” value in data set [1] (setting [21]), in data set [1] (setting [17]) and in data set [1] (setting [18]) were 510 nm, 514 nm and 510 nm, respectively. For the same compound, the “A23 (-)” value in data set [2] (binder sheet (binder method)) is reported as 1.32 -; in data set [2] (setting [16]), 1.34 -; in data set [2] (setting [19]), 1.3 -. In addition, the entries for the “A35 (-)” value in data set [3] (binder sheet (binder method)), in data set [3] (setting [16]) and in data set [3] (setting [20]) were 0.87 -, 0.91 - and 0.86 -, respectively. Also, the “Residual rate (%)” value is recorded as 94% in data set [4] (binder sheet (binder method)), 89% in data set [4] (setting [16]) and 82% in data set [4] (setting [20]). Further, the “A35/A23 *100 (%)” value in data set [5] (binder sheet (binder method)) came to 66%; in data set [5] (setting [16]), 68%; in data set [5] (setting [20]), 66%.
Take `COc1ccc(C2(c3ccc(OC)cc3)C=Cc3c4c(c5cc(N(c6ccccc6)c6ccccc6)c(OC)cc5c3O2)-c2ccccc2C4(C)C)cc1` [Example 2 Formula (30)]: the results for the “Maximum absorption wavelength (nm)” value in data set [1] (setting [21]), in data set [1] (setting [17]) and in data set [1] (setting [18]) were 510 nm, 514 nm and 510 nm, respectively. Further, the “A23 (-)” value in data set [2] (binder sheet (binder method)) is on record as 1.52 -; in data set [2] (setting [16]) it was 1.51 -; in data set [2] (setting [19]), 1.49 -. The “A35 (-)” value in data set [3] (binder sheet (binder method)) is 1.07 -; in data set [3] (setting [16]), 1.07 -; in data set [3] (setting [20]) it was 1.05 -. The “Residual rate (%)” value is 94% in data set [4] (binder sheet (binder method)), 88% in data set [4] (setting [16]) and 82% in data set [4] (setting [20]). Also, the “A35/A23 *100 (%)” value in data set [5] (binder sheet (binder method)) was found to be 70%; in data set [5] (setting [16]), 71%; in data set [5] (setting [20]), 70%.

Source of the values: patent EP4692071A1, “PHOTOCHROMIC COMPOUND, NAPHTHOL DERIVATIVE, CURABLE COMPOSITION, OPTICAL ARTICLE, LENS, AND EYEGLASS” (TOKUYAMA CORPORATION, priority 2023, dated 2024).
